ChEMBL document CHEMBL1128648, “The enantioselective synthesis and antiinflammatory activity of novel aryl-sphingolipid PKC inhibitors” (Bioorg Med Chem Lett, 1995)

How the values were obtained:
[1] = species on record: Canis familiaris; assay: Inhibition of PKC-dependent neutrophil superoxide burst in dogs; assay type: functional, Canis lupus familiaris
[2] = species on record: Mus musculus; assay: Percent change in punch weights [right ear(received drug) -left ear(received vehicle)] was determined in mice at a dose of 1 mg/ear; assay type: functional
[3] = target: Protein kinase C (PKC); assay: Inhibition of Protein kinase C isolated from rat brain
[4] = species on record: Mus musculus; assay: Anti-inflammatory activity on the mice ears using antiinflammatory assay (TPAEE); assay type: functional

Row | Compound | IC50 ([1]; Canis lupus familiaris) | IC50 [3] | IC50 [1] | Change [2] | ED50 [4]
1 | CC(=O)O.CCCCCCCCCCC#Cc1ccc([C@@H](O)[C@@H](N)CO)s1 | 1800 nM | 21.3 µM |  | -81% | 
2 | CC(=O)O.CCCCCCCCCCC#Cc1ccc([C@@H](O)[C@@H](N)CO)s1 (racemic) |  |  | 1500 nM |  | 0.24 mg ear-1
3 | CC(=O)O.CCCCCCCCCCC#Cc1cccc([C@@H](O)[C@@H](N)CO)c1 (stereo in doubt; 10 (-)) |  | 21.8 µM | 2200 nM | -74% | 
4 | CC(=O)O.CCCCCCCCCCC#Cc1cccc([C@@H](O)[C@@H](N)CO)c1 (stereo in doubt; 11(+)) |  | 19.5 µM |  |  | 
5 | CCCCCCCCCCC#Cc1csc([C@@H](O)[C@@H](N)CO)c1.O=C(O)CCC(=O)O (stereo in doubt; 18 (-)) | 1300 nM | 20.1 µM |  | -73% | 
6 | CCCCCCCCCCC#Cc1csc([C@@H](O)[C@@H](N)CO)c1.Cl (stereo in doubt; 18a) |  | 20.1 µM |  |  | 
7 | CCCCCCCCCCC#Cc1csc([C@@H](O)[C@@H](N)CO)c1.O=C(O)CCC(=O)O (stereo in doubt; 19 (+)) |  | 23 µM | 1000 nM | -63% | 
8 | CCCCCCCCCCCCC/C=C/[C@@H](O)[C@@H](N)CO [SPHINGOSINE] | 4200 nM |  |  | -74% | 0.31 mg ear-1

Now from value to compound, other results behind:

Row | IC50 ([1]; Canis lupus familiaris) | IC50 [3] | IC50 [1] | Compound | Change [2] | ED50 [4]
9 |  |  | 1500 nM | CCCCCCCCCCC#Cc1csc([C@@H](O)[C@@H](N)CO)c1 (racemic) |  | 
10 | 2400 nM |  |  | CC(=O)O.CCCCCCCCCCC#Cc1cccc([C@@H](O)[C@@H](N)CO)c1 (racemic) | -82% | 0.34 mg ear-1
11 |  | 28.8 µM |  | CCCCCCCCCCC#Cc1csc([C@@H](O)[C@@H](N)CO)c1.Cl (stereo in doubt; 3a (+/-)) | -81% | 0.23 mg ear-1
12 |  | 23 µM |  | CCCCCCCCCCC#Cc1csc([C@@H](O)[C@@H](N)CO)c1.Cl (stereo in doubt; 19a) |  | 
